Experimental data as given in the supplement of paper PMC3974653.
Counter-ions that a name gives are not always drawn.

test system: MTT (mouse pheochromocytoma); test: IC50 of cell viability (ATP content); details: (24 or 48 h)
Outline: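 MTT mouse pheochromocytoma cells were seeded into white 1536-well plates at 5 µl per well from a 200,000 cells/ml suspension in DMEM with 5% FBS and 1% horse serum, then cultured overnight at 37°C, 5% CO2. A pintool added 23 nl of library compound in DMSO at 8 concentrations (final 0.5 nM to 46 µM) for 24 or 48 hrs, and CellTiter-Glo ATP luminescence was read after 15 minutes. Signals were scaled so that positive-control wells equalled 100% and DMSO wells 0%. IC50 values were derived by fitting a four-parameter logistic curve.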

SMILES | IC50 of cell viability [µM]
C[S+](=O)([O-])CCNCc1ccc(-c2ccc3ncnc(Nc4ccc(OCc5cccc(F)c5)c(Cl)c4)c3c2)o1 [LAPATINIB TOSILATE HYDRATE] | > 46
CCCCCCCCCCCC(=O)N(CCO)CCO [LAURIC DIETHANOLAMIDE] | > 46
CCCCCCCCCCCCOCCCN [LAURIXAMINUM] | > 46
NCCNC(=O)c1ccc(Cl)cn1 [LAZABEMIDE HYDROCHLORIDE] | > 46
CN(C)[C@@H](Cc1ccccc1)c1ccccc1 [LEFETAMINE HYDROCHLORIDE] | > 46
COC(=O)\C1=C(/C)N\C(=C(/C1C2=C(Cl)C(=CC=C2)Cl)C(=O)OC(C)C)COC(N)=O (centres undefined) [LEMILDIPINE] | > 46
Nc1cccc2c1CN(C1CCC(=O)NC1=O)C2=O (centres undefined) [LENALIDOMIDE] | > 46
COC(=O)C1=C(C)NC(C)=C(C(=O)OC(C)(C)CN(C)CCC(c2ccccc2)c2ccccc2)C1c1cccc([N+](=O)[O-])c1 (centres undefined) [LERCANIDIPINE HYDROCHLORIDE] | > 46
COC(=O)CC[C@H](N)C(=O)O [LEUCIGLUMERUM] | > 46
C=CCN1CC[C@]23CCCCC2[C@H]1Cc1ccc(O)cc13 (some centres undefined) [LEVALLORPHAN] | > 46
Clc1cccc(C(c2ccc3nc[nH]c3c2)n2ccnc2)c1 (centres undefined) [LIAROZOLE] | > 46
CCN(CC)CC(=O)Nc1c(C)cccc1C [LIDOCAINE] | > 46
CC1(C)OC2CC(=O)OC[C@@]23C1CC(=O)[C@]1(C)C3CC[C@@]2(C)C(c3ccoc3)OC(=O)C3O[C@@]321 (some centres undefined) [LIMONIN] | > 46
ClC1C(Cl)C(Cl)C(Cl)C(Cl)C1Cl (centres undefined) [LINDANE] | > 46
CC/C=C\C/C=C\C/C=C\CCCCCCCC(=O)O [LINOLENIC ACID] | > 46
O=C(O)COc1ccc(CCN[S+](=O)([O-])c2ccccc2)s1 [LINOTROBANUM] | > 46
O=C(O)Cn1c(C(=O)Nc2nc(-c3ccccc3Cl)cs2)cc2ccccc21 [LINTITRIPTUM] | > 46

SMILES | IC50 of cell viability [µM]
CN1[C@@H](CC(=O)c2ccccc2)CCC[C@H]1C[C@H](O)c1ccccc1 [LOBELINE] | > 46
O=C([O-])c1ccccc1Nc1cc(Cl)ccc1C(=O)[O-] [LOBENZARIT DISODIUM] | > 46
O=NN(CCCl)C(=O)NC1CCCCC1 [LOMUSTINE] | > 46
Cc1cccc(C)c1OCC(=O)N[C@@H](Cc1ccccc1)[C@@H](O)C[C@H](Cc1ccccc1)NC(=O)[C@H](C(C)C)N1CCCNC1=O [LOPINAVIR] | > 46
CCOC(=O)N1CCC(=C2c3ccc(Cl)cc3CCc3cccnc32)CC1 [LORATADINE] | > 46
CCCCCN(CCCCC)C(=O)C(CCC(=O)[O-])NC(=O)c1ccc(Cl)c(Cl)c1.[Na+] (centres undefined) [LORGLUMIDE SODIUM] | > 46
CCCCc1nc(Cl)c(CO)n1Cc1ccc(-c2ccccc2-c2nnn[nH]2)cc1 [LOSARTAN] | > 46
N\C1=N\C2=C(N(CC=C)C(=O)N2C3OC(CO)C(O)C3O)/C(=O)N1 (centres undefined) [LOXORIBINUM] | > 46
N#C/C(=C1/SC[C@@H](c2ccc(Cl)cc2Cl)S1)n1ccnc1 [LULICONAZOLE] | > 46
CCCCN(CCCC)CC(O)c1cc(Cl)cc2c1-c1ccc(Cl)cc1/C2=C/c1ccc(Cl)cc1 (centres undefined) [LUMEFANTRINE] | > 46
CC1=C[C@@H](O)CC(C)(C)[C@@H]1/C=C/C(C)=C/C=C/C(C)=C/C=C/C=C(C)/C=C/C=C(C)/C=C/C1=C(C)C[C@H](O)CC1(C)C [LUTEIN] | > 46
CCCN1CCC[C@@H]2Cc3nc(N)ncc3C[C@H]21 [LY-163,502] | > 46
CC(C)=CCC/C(C)=C/C=C/C(C)=C/C=C/C(C)=C/C=C/C=C(C)/C=C/C=C(C)/C=C/C=C(\C)CCC=C(C)C [LYCOPENE] | > 46
C[C@@H](CCc1ccccc1)NC[C@H](O)c1ccc(O)c(C(N)=O)c1 [Labetalol hydrochloride] | > 46
CCOC(=O)C1=C(C)NC(C)=C(C(=O)OCC)C1c1ccccc1/C=C\C(=O)OC(C)(C)C [Lacidipine] | > 46
CC(O)C(=O)O (centres undefined) [Lactic acid] | > 46
OC[C@@H](O)C(O[C@@H]1O[C@@H](CO)[C@H](O)[C@H](O)[C@H]1O)[C@H](O)[C@@H](O)CO (some centres undefined) [Lactitol] | > 46
